Data as given in ChEMBL document CHEMBL2046343, “'Click' synthesis of a triazole-based inhibitor of Met functions in cancer cells” (Bioorg Med Chem Lett, 2012).
Calls of active or inactive are those of the source. The calls are words filed in the database; no cut-off is given here.

How the values were obtained:
MDCK = assay: Cytotoxicity against MDCK cells at IC50; format: cell-based, Canis lupus familiaris; details: dog
[1] = (§1) Cytotoxicity against human GTL16 cells expressing MET assessed as inhibition of anchorage-independent cell growth treated every 3 days for 2 weeks by MTT assay; format: functional, cell-based; details: GTL 16
[2] = biological target: Hepatocyte growth factor receptor (Canis lupus familiaris) (UniProt Q75ZY9); assay: Inhibition of HGF-induced Met phosphorylation at Tyr1234 and Tyr1235 in MDCK cells at 10 uM by immunoblotting; format: cell-based
NCI-H1437 = assay: Cytotoxicity against human NCI-H1437 cells assessed as inhibition of anchorage-independent cell growth treated every 3 days for 2 weeks by MTT assay; format: functional, cell-based
H1437 = assay: Inhibition of HGF-induced Met R988C mutant phosphorylation at Tyr1234 and Tyr1235 in human H1437 cells at 10 uM by immunoblotting
GTL 16 = assay: as §1; format: functional, cell-based

Hepatocyte growth factor receptor (Canis lupus familiaris), sequence (Q75ZY9 whole entry): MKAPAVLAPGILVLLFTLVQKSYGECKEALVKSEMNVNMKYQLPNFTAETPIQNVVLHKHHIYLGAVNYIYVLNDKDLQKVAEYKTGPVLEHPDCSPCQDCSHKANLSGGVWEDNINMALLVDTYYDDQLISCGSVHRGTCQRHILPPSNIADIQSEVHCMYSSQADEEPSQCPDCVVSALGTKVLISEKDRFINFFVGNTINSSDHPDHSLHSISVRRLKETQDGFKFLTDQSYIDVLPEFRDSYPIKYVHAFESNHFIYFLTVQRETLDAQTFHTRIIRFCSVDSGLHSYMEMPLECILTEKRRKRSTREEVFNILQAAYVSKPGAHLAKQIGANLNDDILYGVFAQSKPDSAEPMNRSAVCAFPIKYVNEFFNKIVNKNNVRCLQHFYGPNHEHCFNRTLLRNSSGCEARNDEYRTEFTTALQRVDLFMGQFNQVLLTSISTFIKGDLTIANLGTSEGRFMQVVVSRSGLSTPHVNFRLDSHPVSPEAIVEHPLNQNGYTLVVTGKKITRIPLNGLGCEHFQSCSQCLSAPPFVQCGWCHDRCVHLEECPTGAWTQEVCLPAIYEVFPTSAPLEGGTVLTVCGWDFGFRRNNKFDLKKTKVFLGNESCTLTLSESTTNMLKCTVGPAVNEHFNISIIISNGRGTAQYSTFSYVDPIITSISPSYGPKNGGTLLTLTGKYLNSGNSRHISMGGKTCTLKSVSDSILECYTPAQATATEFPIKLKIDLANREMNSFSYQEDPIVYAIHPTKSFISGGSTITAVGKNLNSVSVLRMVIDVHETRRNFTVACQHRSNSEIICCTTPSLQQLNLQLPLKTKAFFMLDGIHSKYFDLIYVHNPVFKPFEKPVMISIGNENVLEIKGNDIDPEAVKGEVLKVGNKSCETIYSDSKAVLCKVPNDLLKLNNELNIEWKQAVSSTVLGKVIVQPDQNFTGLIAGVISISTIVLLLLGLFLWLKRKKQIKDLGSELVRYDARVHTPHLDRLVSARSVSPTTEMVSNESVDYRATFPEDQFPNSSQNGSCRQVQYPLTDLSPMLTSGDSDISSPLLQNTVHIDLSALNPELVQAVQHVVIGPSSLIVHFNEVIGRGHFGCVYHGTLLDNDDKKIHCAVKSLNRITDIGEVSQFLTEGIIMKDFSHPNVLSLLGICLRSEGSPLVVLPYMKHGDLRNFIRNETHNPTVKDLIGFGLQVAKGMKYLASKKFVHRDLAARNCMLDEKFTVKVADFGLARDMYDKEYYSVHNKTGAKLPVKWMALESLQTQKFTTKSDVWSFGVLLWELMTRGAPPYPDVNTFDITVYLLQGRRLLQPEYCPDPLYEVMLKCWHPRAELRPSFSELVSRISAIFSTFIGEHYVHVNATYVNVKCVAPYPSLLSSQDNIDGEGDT

inhibition [2] | SMILES | Activity (MDCK) | IC50 [1] [nM] | growth inhibition (GI) (NCI-H1437) | inhibition (H1437) | growth inhibition (GI) (GTL 16)
– | O=C(Cc1cc(C(F)(F)F)cc(C(F)(F)F)c1)N[C@@H](Cc1ccccc1)C(=O)Nc1ccc(-c2cn3c(n2)sc2ccccc23)cc1 | Non-toxic | 800 | – | – | –
– | O=C(Cc1cc(C(F)(F)F)cc(C(F)(F)F)c1)N[C@H](Cc1ccccc1)C(=O)Nc1ccc(-c2cn3c(n2)sc2ccccc23)cc1 | Non-toxic | 1190 | – | – | –
Active | O=C(Cc1cc(C(F)(F)F)cc(C(F)(F)F)c1)NC(Cc1ccccc1)c1cn(-c2ccc(-c3cn4c(n3)sc3ccccc34)cc2)nn1 (stereo not given) | Non-toxic | 8500 | Dose-dependent effect | Active | Dose-dependent effect
